Measured values from PMC7617869, “Molecular glues that inhibit deubiquitylase activity and inflammatory signaling” (Nature Structural & Molecular Biology, 2025).
“And” between values parts separate entries of the source, which are not always exact repeats. Equal values may be shown once.

Tests used:
Experiment in all cases: DUB selectivity profiling (DUBprofiler, ubiquitin–rhodamine(110)–glycine)
Assay type in all cases: biochemical
[1] = target: T1, panel of 48 purified DUBs (Homo sapiens, UniProt A6NNY8); details: DUB USP27X; screening concentration 5 μM; 5 µM
T1 construct: purchased Ubiquigent (DUBprofiler service)
Method: (§1) Biochemical selectivity profiling (DUBprofiler) was performed by Ubiquigent with a panel of 48 purified DUBs and ubiquitin–rhodamine(110)–glycine as a fluorescent substrate.

[2] = target: T2, panel of 48 purified DUBs (Homo sapiens, UniProt P09936); details: DUB UCHL1; screening concentration 5 μM; 5 µM
T2 construct: purchased Ubiquigent (DUBprofiler service)
Method: as §1

[3] = target: T3, panel of 48 purified DUBs (Homo sapiens, UniProt P15374); details: DUB UCHL3; screening concentration 5 μM; 5 µM
T3 construct: purchased Ubiquigent (DUBprofiler service)
Method: as §1

[4] = target: T4, panel of 48 purified DUBs (Homo sapiens, UniProt P35125); details: DUB USP6; screening concentration 5 μM; 5 µM
T4 construct: purchased Ubiquigent (DUBprofiler service)
Method: as §1

[5] = target: T5, panel of 48 purified DUBs (Homo sapiens, UniProt P40818); details: DUB USP8; screening concentration 5 μM; 5 µM
T5 construct: purchased Ubiquigent (DUBprofiler service)
Method: as §1

[6] = target: T6, panel of 48 purified DUBs (Homo sapiens, UniProt P45974); details: DUB USP5; screening concentration 5 μM; 5 µM
T6 construct: purchased Ubiquigent (DUBprofiler service)
Method: as §1

[7] = target: T7, panel of 48 purified DUBs (Homo sapiens, UniProt P51784); details: DUB USP11; screening concentration 5 μM; 5 µM
T7 construct: purchased Ubiquigent (DUBprofiler service)
Method: as §1

[8] = target: T8, panel of 48 purified DUBs (Homo sapiens, UniProt P62068); details: DUB USP46/UAF1/WDR20; screening concentration 5 μM; 5 µM
T8 construct: purchased Ubiquigent (DUBprofiler service)
T8 sequence (P62068 whole entry): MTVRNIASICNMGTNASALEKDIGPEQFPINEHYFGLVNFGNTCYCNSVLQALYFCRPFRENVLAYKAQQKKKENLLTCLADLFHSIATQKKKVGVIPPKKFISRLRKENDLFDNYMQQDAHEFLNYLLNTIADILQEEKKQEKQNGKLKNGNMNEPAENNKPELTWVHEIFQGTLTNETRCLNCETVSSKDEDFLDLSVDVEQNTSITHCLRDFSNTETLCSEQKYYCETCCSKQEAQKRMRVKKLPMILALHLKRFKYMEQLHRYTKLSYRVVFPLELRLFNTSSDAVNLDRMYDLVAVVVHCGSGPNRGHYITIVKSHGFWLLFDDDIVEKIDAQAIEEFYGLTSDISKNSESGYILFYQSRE
Method: as §1

[9] = target: T9, panel of 48 purified DUBs (Homo sapiens, UniProt Q14694); details: DUB USP10; screening concentration 5 μM; 5 µM
T9 construct: purchased Ubiquigent (DUBprofiler service)
Method: as §1

[10] = target: T10, panel of 48 purified DUBs (Homo sapiens, UniProt Q5T2D3); details: DUB OTUD3; screening concentration 5 μM; 5 µM
T10 construct: purchased Ubiquigent (DUBprofiler service)
Method: as §1

[11] = target: T11, panel of 48 purified DUBs (Homo sapiens, UniProt Q5VV17); details: DUB OTUD1; screening concentration 5 μM; 5 µM
T11 construct: purchased Ubiquigent (DUBprofiler service)
Method: as §1

[12] = target: T12, panel of 48 purified DUBs (Homo sapiens, UniProt Q70CQ3); details: DUB USP30; screening concentration 5 μM
T12 construct: purchased Ubiquigent (DUBprofiler service)
Method: as §1

[13] = target: T13, panel of 48 purified DUBs (Homo sapiens, UniProt Q70EL2); details: DUB USP45; screening concentration 5 μM; 5 µM
T13 construct: purchased Ubiquigent (DUBprofiler service)
T13 sequence (Q70EL2 whole entry): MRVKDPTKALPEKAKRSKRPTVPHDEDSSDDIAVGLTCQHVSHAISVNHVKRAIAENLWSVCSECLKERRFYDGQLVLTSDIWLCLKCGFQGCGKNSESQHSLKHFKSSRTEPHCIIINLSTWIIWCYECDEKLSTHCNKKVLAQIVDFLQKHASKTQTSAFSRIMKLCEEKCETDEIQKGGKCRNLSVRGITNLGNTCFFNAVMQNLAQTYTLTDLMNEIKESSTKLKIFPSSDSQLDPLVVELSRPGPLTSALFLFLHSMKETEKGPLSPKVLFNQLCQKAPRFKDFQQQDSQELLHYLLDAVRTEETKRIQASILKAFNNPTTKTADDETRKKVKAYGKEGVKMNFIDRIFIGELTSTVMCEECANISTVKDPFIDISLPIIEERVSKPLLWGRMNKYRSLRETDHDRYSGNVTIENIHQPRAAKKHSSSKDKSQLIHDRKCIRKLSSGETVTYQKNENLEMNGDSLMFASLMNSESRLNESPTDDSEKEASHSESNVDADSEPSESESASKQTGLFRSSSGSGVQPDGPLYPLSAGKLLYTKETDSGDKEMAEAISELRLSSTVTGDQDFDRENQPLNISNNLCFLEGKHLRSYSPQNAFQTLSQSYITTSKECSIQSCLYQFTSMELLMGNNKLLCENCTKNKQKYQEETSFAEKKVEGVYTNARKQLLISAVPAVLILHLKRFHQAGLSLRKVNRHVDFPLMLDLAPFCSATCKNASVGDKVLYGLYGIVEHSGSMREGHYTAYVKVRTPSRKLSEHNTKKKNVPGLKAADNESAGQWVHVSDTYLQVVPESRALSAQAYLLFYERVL
Method: as §1

[14] = target: T14, panel of 48 purified DUBs (Homo sapiens, UniProt Q86UV5); details: DUB USP48; screening concentration 5 μM; 5 µM
T14 construct: purchased Ubiquigent (DUBprofiler service)
T14 sequence (Q86UV5 whole entry): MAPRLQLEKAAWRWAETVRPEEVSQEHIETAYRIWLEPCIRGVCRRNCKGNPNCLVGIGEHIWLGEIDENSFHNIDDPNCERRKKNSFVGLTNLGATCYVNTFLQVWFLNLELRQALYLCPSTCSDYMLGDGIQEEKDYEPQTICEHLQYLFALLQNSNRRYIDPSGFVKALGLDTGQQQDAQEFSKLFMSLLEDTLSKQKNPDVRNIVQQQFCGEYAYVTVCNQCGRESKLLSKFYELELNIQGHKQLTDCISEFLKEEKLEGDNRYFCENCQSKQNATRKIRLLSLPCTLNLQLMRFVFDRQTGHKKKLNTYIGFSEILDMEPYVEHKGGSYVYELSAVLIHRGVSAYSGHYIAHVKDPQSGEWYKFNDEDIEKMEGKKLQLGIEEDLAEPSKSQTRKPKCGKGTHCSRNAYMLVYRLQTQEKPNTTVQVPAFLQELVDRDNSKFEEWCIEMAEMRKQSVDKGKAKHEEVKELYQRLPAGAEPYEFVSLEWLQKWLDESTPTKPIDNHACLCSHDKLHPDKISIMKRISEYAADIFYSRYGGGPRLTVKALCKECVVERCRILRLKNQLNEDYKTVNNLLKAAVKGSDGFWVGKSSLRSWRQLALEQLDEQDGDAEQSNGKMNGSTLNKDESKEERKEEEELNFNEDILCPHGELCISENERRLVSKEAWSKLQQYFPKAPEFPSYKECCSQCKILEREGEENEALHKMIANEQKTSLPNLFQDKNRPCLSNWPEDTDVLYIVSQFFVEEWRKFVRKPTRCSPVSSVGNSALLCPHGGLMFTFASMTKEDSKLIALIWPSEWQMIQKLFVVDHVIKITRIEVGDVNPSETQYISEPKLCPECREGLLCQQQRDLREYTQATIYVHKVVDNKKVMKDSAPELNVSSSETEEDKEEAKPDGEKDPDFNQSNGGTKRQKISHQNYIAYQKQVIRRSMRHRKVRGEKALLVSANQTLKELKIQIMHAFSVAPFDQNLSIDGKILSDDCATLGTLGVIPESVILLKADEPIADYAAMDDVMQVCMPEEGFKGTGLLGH
Method: as §1

[15] = target: T15, panel of 48 purified DUBs (Homo sapiens, UniProt Q8NB14); details: DUB USP38; screening concentration 5 μM; 5 µM
T15 construct: purchased Ubiquigent (DUBprofiler service)
Method: as §1

[16] = target: T16, panel of 48 purified DUBs (Homo sapiens, UniProt Q92560); details: DUB BAP1; screening concentration 5 μM; 5 µM
T16 construct: purchased Ubiquigent (DUBprofiler service)
Method: as §1

[17] = target: T17, panel of 48 purified DUBs (Homo sapiens, UniProt Q93008); details: DUB USP9X; screening concentration 5 μM; 5 µM
T17 construct: purchased Ubiquigent (DUBprofiler service)
Method: as §1

[18] = target: T18, panel of 48 purified DUBs (Homo sapiens, UniProt Q93009); details: DUB USP7; screening concentration 5 μM; 5 µM
T18 construct: purchased Ubiquigent (DUBprofiler service)
Method: as §1

[19] = target: T19, panel of 48 purified DUBs (Homo sapiens, UniProt Q96DC9); details: DUB OTUB2; screening concentration 5 μM; 5 µM
T19 construct: purchased Ubiquigent (DUBprofiler service)
Method: as §1

[20] = target: T20, panel of 48 purified DUBs (Homo sapiens, UniProt Q96FJ0); details: screening concentration 5 μM, 5 µM
T20 construct: purchased Ubiquigent (DUBprofiler service)
T20 sequence (Q96FJ0 whole entry): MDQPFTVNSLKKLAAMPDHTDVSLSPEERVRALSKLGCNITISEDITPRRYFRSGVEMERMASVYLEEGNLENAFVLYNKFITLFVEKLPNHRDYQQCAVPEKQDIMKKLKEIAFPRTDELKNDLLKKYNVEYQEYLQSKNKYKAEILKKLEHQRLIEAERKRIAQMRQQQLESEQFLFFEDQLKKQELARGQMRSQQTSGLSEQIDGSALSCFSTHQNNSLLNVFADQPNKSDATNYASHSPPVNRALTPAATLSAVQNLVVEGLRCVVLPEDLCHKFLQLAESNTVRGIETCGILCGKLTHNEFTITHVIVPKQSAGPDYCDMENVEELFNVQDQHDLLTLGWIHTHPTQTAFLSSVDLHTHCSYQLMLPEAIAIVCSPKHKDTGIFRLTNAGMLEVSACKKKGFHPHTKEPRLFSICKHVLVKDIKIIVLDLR
Method: as §1

[21] = target: T21, panel of 48 purified DUBs (Homo sapiens, UniProt Q96JH7); details: DUB VCPIP; screening concentration 5 μM
T21 construct: purchased Ubiquigent (DUBprofiler service)
Method: as §1

[22] = target: T22, panel of 48 purified DUBs (Homo sapiens, UniProt Q96RU2); details: DUB USP28; screening concentration 5 μM; 5 µM
T22 construct: purchased Ubiquigent (DUBprofiler service)
Method: as §1

[23] = target: T23, panel of 48 purified DUBs (Homo sapiens, UniProt Q9P275); details: DUB USP36; screening concentration 5 μM; 5 µM
T23 construct: purchased Ubiquigent (DUBprofiler service)
T23 sequence (Q9P275 whole entry): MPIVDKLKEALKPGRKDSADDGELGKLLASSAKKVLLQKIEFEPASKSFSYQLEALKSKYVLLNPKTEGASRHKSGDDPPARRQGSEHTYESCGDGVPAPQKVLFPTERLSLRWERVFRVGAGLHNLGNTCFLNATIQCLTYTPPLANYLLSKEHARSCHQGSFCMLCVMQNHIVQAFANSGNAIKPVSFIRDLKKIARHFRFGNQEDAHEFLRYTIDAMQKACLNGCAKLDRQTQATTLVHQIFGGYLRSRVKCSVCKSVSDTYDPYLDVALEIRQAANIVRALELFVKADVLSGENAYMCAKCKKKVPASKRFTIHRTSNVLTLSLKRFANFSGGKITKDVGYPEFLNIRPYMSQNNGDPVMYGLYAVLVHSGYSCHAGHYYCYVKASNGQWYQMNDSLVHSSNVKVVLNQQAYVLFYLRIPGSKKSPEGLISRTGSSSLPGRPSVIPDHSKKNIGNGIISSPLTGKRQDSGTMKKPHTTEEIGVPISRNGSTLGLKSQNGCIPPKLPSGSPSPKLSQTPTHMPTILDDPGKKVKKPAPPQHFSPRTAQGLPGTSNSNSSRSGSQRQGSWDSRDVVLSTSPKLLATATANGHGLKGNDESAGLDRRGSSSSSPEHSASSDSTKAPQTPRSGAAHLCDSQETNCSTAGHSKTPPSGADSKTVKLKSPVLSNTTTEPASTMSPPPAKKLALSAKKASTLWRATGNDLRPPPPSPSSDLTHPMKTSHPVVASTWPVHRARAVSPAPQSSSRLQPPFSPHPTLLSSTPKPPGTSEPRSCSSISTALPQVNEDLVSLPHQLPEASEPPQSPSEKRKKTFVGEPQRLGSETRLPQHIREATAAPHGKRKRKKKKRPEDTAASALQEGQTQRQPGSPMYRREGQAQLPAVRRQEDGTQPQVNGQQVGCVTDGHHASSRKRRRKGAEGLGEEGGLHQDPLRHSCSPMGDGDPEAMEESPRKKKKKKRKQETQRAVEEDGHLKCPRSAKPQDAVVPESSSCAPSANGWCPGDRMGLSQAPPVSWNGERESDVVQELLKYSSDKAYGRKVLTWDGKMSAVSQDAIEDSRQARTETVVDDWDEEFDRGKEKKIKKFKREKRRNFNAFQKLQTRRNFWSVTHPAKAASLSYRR
Method: as §1

[24] = target: T24, panel of 48 purified DUBs (Homo sapiens, UniProt Q9P2H5); details: DUB USP35; screening concentration 5 μM; 5 µM
T24 construct: purchased Ubiquigent (DUBprofiler service)
Method: as §1

[25] = target: T25, panel of 48 purified DUBs (Homo sapiens, UniProt Q9UHP3); details: DUB USP25; screening concentration 5 μM; 5 µM
T25 construct: purchased Ubiquigent (DUBprofiler service)
Method: as §1

[26] = target: T26, panel of 48 purified DUBs (Homo sapiens, UniProt Q9UK80); details: DUB USP21; screening concentration 5 μM
T26 construct: purchased Ubiquigent (DUBprofiler service)
Method: as §1

[27] = target: T27, panel of 48 purified DUBs (Homo sapiens, UniProt Q9Y2K6); details: DUB USP20; screening concentration 5 μM; 5 µM
T27 construct: purchased Ubiquigent (DUBprofiler service)
Method: as §1

[28] = target: T28, panel of 48 purified DUBs (Homo sapiens, UniProt Q9Y5K5); details: DUB UCHL5; screening concentration 5 μM; 5 µM
T28 construct: purchased Ubiquigent (DUBprofiler service)
T28 sequence (Q9Y5K5 whole entry): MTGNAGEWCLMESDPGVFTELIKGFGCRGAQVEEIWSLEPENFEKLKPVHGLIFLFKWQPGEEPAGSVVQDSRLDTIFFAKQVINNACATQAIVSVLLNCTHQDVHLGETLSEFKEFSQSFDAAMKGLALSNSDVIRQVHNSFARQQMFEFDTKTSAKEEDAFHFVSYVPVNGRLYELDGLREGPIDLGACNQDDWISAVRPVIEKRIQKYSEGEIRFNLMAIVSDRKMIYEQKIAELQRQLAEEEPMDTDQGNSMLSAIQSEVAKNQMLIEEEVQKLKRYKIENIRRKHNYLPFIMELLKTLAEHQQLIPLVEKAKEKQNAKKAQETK
Method: as §1

[29] = target: T29, panel of 48 purified DUBs (Homo sapiens, UniProt Q9Y5T5); details: DUB USP16; screening concentration 5 μM; 5 µM
T29 construct: purchased Ubiquigent (DUBprofiler service)
T29 sequence (Q9Y5T5 whole entry): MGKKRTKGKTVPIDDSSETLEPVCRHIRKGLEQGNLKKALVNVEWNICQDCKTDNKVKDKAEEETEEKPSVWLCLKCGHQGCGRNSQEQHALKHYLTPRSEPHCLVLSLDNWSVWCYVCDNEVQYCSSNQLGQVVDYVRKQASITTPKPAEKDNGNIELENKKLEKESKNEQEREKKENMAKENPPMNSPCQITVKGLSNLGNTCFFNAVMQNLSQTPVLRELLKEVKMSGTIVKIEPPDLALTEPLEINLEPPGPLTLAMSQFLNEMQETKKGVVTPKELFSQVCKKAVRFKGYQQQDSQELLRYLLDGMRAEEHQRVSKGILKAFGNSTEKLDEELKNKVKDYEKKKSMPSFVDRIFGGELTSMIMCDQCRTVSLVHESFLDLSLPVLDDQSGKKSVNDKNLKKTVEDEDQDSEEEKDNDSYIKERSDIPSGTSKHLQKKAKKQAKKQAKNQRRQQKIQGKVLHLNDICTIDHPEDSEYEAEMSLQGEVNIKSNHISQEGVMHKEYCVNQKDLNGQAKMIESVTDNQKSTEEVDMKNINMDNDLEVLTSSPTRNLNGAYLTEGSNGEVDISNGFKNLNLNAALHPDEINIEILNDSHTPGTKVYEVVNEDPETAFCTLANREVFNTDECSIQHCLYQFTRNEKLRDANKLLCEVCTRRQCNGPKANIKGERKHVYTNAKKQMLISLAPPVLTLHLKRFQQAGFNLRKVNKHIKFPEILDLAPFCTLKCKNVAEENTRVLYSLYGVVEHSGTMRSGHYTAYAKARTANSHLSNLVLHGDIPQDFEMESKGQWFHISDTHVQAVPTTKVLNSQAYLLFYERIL
Method: as §1

O=C(NC1CCNCC1)c1nn(C(=O)c2c(Cl)cccc2Cl)cc1NC(=O)c1c(Cl)cccc1Cl [JMS-175-2]
Activity (% control) [1]: 102 % control and 97 % control
Activity (% control) [2]: 104 % control and 112 % control
Activity (% control) [3]: 95 % control and 96 % control
Activity (% control) [4]: 92 % control and 95 % control
Activity (% control) [5]: 88 % control and 84 % control
Activity (% control) [6]: 103 % control and 105 % control
Activity (% control) [7]: 102 % control and 100 % control
Activity (% control) [8]: 95 % control and 99 % control
Activity (% control) [9]: 95 % control and 102 % control
Activity (% control) [10]: 95 % control and 93 % control
Activity (% control) [11]: 100 % control and 102 % control
Activity (% control) [12]: 89 % control
Activity (% control) [13]: 112 % control and 107 % control
Activity (% control) [14]: 99 % control and 103 % control
Activity (% control) [15]: 94 % control and 92 % control
Activity (% control) [16]: 92 % control and 96 % control
Activity (% control) [17]: 103 % control and 98 % control
Activity (% control) [18]: 116 % control and 121 % control
Activity (% control) [19]: 97 % control and 96 % control
Activity (% control) ([20]; DUB AMSH-LP(+Zn2+)): 100 % control and 99 % control
Activity (% control) ([20]; DUB AMSH-LP): 98 % control and 90 % control
Activity (% control) [21]: 93 % control
Activity (% control) [22]: 107 % control and 96 % control
Activity (% control) [23]: 108 % control and 117 % control
Activity (% control) [24]: 96 % control and 94 % control
Activity (% control) [25]: 93 % control and 94 % control
Activity (% control) [26]: 93 % control
Activity (% control) [27]: 93 % control and 101 % control
Activity (% control) [28]: 90 % control and 98 % control
Activity (% control) [29]: 79 % control and 78 % control
